According to patent EP0354453A2, “Antimicrobial agent for animals” (priority 1988, dated 1990):

How the values were obtained:
[1] = tested on: Staphylococcus aureus Aichi 2; experiment: in vitro antimicrobial activity (MIC), agar dilution, Part 1; format: cell-based; conditions: AICHI2; Staphylococcus aureus Aichi 2, Chicken; Mueller Hinton agar, 37°C, 18-24 hours
Description: (§1) Test microorganisms listed in Table 2 were cultured overnight in heart infusion nutrient broth (produced by Eiken Chemical Co., Ltd.). Culture broth containing about 10⁸/ml cells was diluted to a volume of 100 times. An aliquot (about 0.05 ml) of the diluted broth was inoculated onto a Mueller Hinton agar plate (produced by Eiken Chemical Co., Ltd.) to which Compound No. 1 was added in a prescribed concentration. […]

[2] = tested on: Escherichia coli 15-4; experiment: as above; format: cell-based; conditions: 154; Escherichia coli 15-4, Cow; Mueller Hinton agar, 37°C, 18-24 hours
Description: as §1

[3] = tested on: Bordetella bronchiaseptica AR3; experiment: as above; format: cell-based; conditions: Bordetella bronchiaseptica AR3, Pig; Mueller Hinton agar, 37°C, 18-24 hours
Description: as §1

[4] = tested on: Salmonella typhimurium 595; experiment: as above; format: cell-based; conditions: Salmonella enterica; Salmonella typhimurium 595, Pig; Mueller Hinton agar, 37°C, 18-24 hours
Description: as §1

[5] = tested on: Salmonella typhimurium 101; experiment: as above; format: cell-based; conditions: Salmonella enterica; Salmonella typhimurium 101, Chicken; Mueller Hinton agar, 37°C, 18-24 hours
Description: as §1

[6] = tested on: Escherichia coli 442; experiment: as above; format: cell-based; conditions: Escherichia coli 442, Chicken; Mueller Hinton agar, 37°C, 18-24 hours
Description: as §1

[7] = tested on: Escherichia coli 164; experiment: as above; format: cell-based; conditions: Escherichia coli 164, Pig; Mueller Hinton agar, 37°C, 18-24 hours
Description: as §1

[8] = tested on: Mycoplasma gallisepticum Strain DP-1047; experiment: in vitro antimicrobial activity (MIC) in Frey liquid medium; format: cell-based; conditions: Mycoplasmoides gallisepticum; Mycoplasma gallisepticum Strain DP-1047, from chicken; Frey liquid medium, 37°C, 3-5 days; read-out: MIC
Description: (§2) Various test strains of Mycoplasma gallisepticum derived from chicken were cultured in a Frey liquid medium for Mycoplasma for 3 days. The culture broth containing about 10⁸/ml cells was diluted to a volume of 100 times. The diluted broth was inoculated into Frey liquid media for Mycoplasma to which the compounds of this invention were added at prescribed concentrations. The cells were incubated at 37°C for 3-5 days while daily observing the color of the media. Among the culture broths maintaining yellow color at the time when the control to which no test compound was added turned red, the concentration of the broth having the minimum concentration was taken as the MIC of the compound.

[9] = tested on: Mycoplasma gallisepticum Strain 2012; experiment: as above; format: cell-based; conditions: Mycoplasmoides gallisepticum, STRAIN2012; Mycoplasma gallisepticum Strain 2012, from chicken; Frey liquid medium, 37°C, 3-5 days; read-out: MIC
Description: as §2

[10] = tested on: Mycoplasma gallisepticum Strain T-7; experiment: as above; format: cell-based; conditions: Mycoplasmoides gallisepticum, Mycoplasma gallisepticum Strain T-7, from chicken, 37°C, 3-5 days
Description: as §2

[11] = tested on: Mycoplasma gallisepticum Strain 2004; experiment: as above; format: cell-based; conditions: Mycoplasmoides gallisepticum, STRAIN2004; Mycoplasma gallisepticum Strain 2004, from chicken; Frey liquid medium, 37°C, 3-5 days; read-out: MIC
Description: as §2

[12] = tested on: Mycoplasma gallisepticum Strain T-2; experiment: as above; format: cell-based; conditions: Mycoplasmoides gallisepticum; Mycoplasma gallisepticum Strain T-2, from chicken; Frey liquid medium, 37°C, 3-5 days; read-out: MIC
Description: as §2

[13] = tested on: pathogenic bacteria derived from animals; experiment: in vitro antimicrobial activity, Part 1, overall comparison; format: cell-based; conditions: summary of Table 2
Description: as §1

[14] = tested on: Escherichia coli; experiment: Effect of oral administration on chicken inoculated with Escherichia coli; format: in vivo; conditions: for Chickens developing disease in air sac (naked eye observation) / No. of dead chickens: 5 tested chickens
Description: Escherichia coli cells collected from infected chicken were cultured overnight in a trypticase soy broth (BBL). 0.2 ml of this culture broth was injected into the trachea of chickens of average body weight of 80 g using a 1 ml disposable injection needle. Beginning 2 hours after the inoculation, feeds to which Compound (1) had been added in the amount of 50 ppm, 25 ppm, or 12.5 ppm were freely given to the chickens for 5 days. Following the administration of Compound (1) the chickens were given feed with no addition of drug for 5 days. The surviving chickens were sacrificed and dissected. After examination of the degree of disease in the air sac, Escherichia coli in the trachea, lung, and air sac were quantitatively determined. […]

[15] = tested on: Salmonella typhimurium 103; experiment: in vitro antimicrobial activity (MIC), agar dilution, Part 2; format: cell-based; conditions: Salmonella enterica; Salmonella typhimurium 103, Chicken; read-out: MIC
Description: as §1
(§3) MIC of Compounds (1)-(8) against various pathogenic bacteria derived from animals was determined in the same manner as in Example 1.

[16] = tested on: Escherichia coli 881; experiment: as above; format: cell-based; conditions: Escherichia coli, 881, Escherichia coli 881, Pig; read-out: MIC
Description: as §1, §3

[17] = tested on: Escherichia coli S6W; experiment: as above; format: cell-based; conditions: Escherichia coli, S6W, Escherichia coli S6W, Chicken; read-out: MIC
Description: as §1, §3

[18] = tested on: Escherichia coli 139; experiment: as above; format: cell-based; conditions: Escherichia coli 139, Cow; read-out: MIC
Description: as §1, §3

[19] = tested on: Salmonella typhimurium 569; experiment: as above; format: cell-based; conditions: Salmonella enterica, TYPHIMURIUM, Salmonella typhimurium 569, Pig; read-out: MIC
Description: as §1, §3

[20] = tested on: Bordetella bronchiaseptica OKM-1; experiment: as above; format: cell-based; conditions: Bordetella, OKM1, Bordetella bronchiaseptica OKM-1, Pig; read-out: MIC
Description: as §1, §3

[21] = tested on: Staphylococcus aureus Yamaguchi 6; experiment: as above; format: cell-based; conditions: Staphylococcus aureus Yamaguchi 6, Chicken; read-out: MIC
Description: as §1, §3

[22] = tested on: Mycoplasma gallisepticum; experiment: Effect of oral administration on chicken inoculated with Mycoplasma gallisepticum; format: in vivo; conditions: for Chickens developing disease in air sac (naked eye observation) / No. of dead chickens: 5 tested chickens
Description: Mycoplasma gallisepticum cells collected from chickens having respiratory Mycoplasma infection were cultured for 3 days in a Frey liquid media for Mycoplasma. 0.2 ml of this culture broth was injected into the trachea of chickens of an average body weight of 80 g using a 1 ml disposable injection needle. Beginning from the next day following the inoculation, feeds to which Compound (1) had been added in the amount of 100 ppm, 75 ppm, or 50 ppm were freely given to the chickens for 5 days. Following the administration of Compound (1) the chickens were given feed containing no drug for a further 5 days. The surviving chickens were sacrificed and dissected. After examination of the degree of disease in the air sac, Mycoplasma gallisepticum in the infraorbital sinus, trachea, lung, and air sac were determined. […] TABLE 6 […]

C[C@H]1COc2c(N3CCN(C)CC3)c(F)cc3c(=O)c(C(=O)O)cn1c23 [Compound (1), 3S-9-fluoro-2,3-dihydro-3-methyl-10-(4-methyl-1-piperazinyl)-7-oxo-7H-pyrido[1,2,3-de] [1,4]benzoxazine-6-carboxylic acid hemihydrate]
MIC [1]: 0.1 µg/mL | MIC [2]: 0.05 µg/mL | MIC [3]: 0.2 µg/mL | MIC [4]: 0.05 µg/mL | MIC [5]: 0.025 µg/mL | MIC [6]: 0.025 µg/mL | MIC [7]: 0.05 µg/mL | MIC [8]: 0.025 µg/mL | MIC [9]: 0.025 µg/mL | MIC [10]: 0.05 µg/mL | MIC [11]: 0.0125 µg/mL | MIC [12]: 0.05 µg/mL | antimicrobial activities compared with Ofloxacin [13]: higher antimicrobial activities than its known racemic isomer (Ofloxacin) | Escherichia coli collected in Air sac ([14]; 12.5 ppm in feed for 5 days): 3.99 Logarithmic number of collected cells per 1 g of tissue | Escherichia coli collected in Lung ([14]; 12.5 ppm in feed for 5 days): 2.78 Logarithmic number of collected cells per 1 g of tissue | Escherichia coli collected in Trachea ([14]; 12.5 ppm in feed for 5 days): 2.78 Logarithmic number of collected cells per 1 g of tissue | Chickens developing disease in air sac (naked eye observation) ([14]; 12.5 ppm in feed for 5 days): 3 | No. of dead chickens ([14]; 12.5 ppm in feed for 5 days): 1 | Escherichia coli collected in Air sac ([14]; 25 ppm in feed for 5 days): 0 Logarithmic number of collected cells per 1 g of tissue | Escherichia coli collected in Lung ([14]; 25 ppm in feed for 5 days): 0 Logarithmic number of collected cells per 1 g of tissue | Escherichia coli collected in Trachea ([14]; 25 ppm in feed for 5 days): 0 Logarithmic number of collected cells per 1 g of tissue | Chickens developing disease in air sac (naked eye observation) ([14]; 25 ppm in feed for 5 days): 1 | No. of dead chickens ([14]; 25 ppm in feed for 5 days): 0 | Escherichia coli collected in Air sac ([14]; 50 ppm in feed for 5 days): 0 Logarithmic number of collected cells per 1 g of tissue | Escherichia coli collected in Lung ([14]; 50 ppm in feed for 5 days): 0 Logarithmic number of collected cells per 1 g of tissue | Escherichia coli collected in Trachea ([14]; 50 ppm in feed for 5 days): 0 Logarithmic number of collected cells per 1 g of tissue | Chickens developing disease in air sac (naked eye observation) ([14]; 50 ppm in feed for 5 days): 0 | No. of dead chickens ([14]; 50 ppm in feed for 5 days): 0 | MIC [15]: 0.05 µg/mL | MIC [16]: 0.05 µg/mL | MIC [17]: 0.025 µg/mL | MIC [18]: 0.05 µg/mL | MIC [19]: 0.05 µg/mL | MIC [20]: 0.2 µg/mL | MIC [21]: 0.05 µg/mL | Mycoplasma gallisepticum collected in Air sac ([22]; 50 ppm in feed for 5 days): 2.32 Logarithmic number of collected cells per 1 g of tissue | Mycoplasma gallisepticum collected in Infraorbital sinus ([22]; 50 ppm in feed for 5 days): 0/5 | Mycoplasma gallisepticum collected in Lung ([22]; 50 ppm in feed for 5 days): 0 Logarithmic number of collected cells per 1 g of tissue | Mycoplasma gallisepticum collected in Trachea ([22]; 50 ppm in feed for 5 days): 0 Logarithmic number of collected cells per 1 g of tissue | Chickens developing disease in air sac (naked eye observation) ([22]; 50 ppm in feed for 5 days): 0 | No. of dead chickens ([22]; 50 ppm in feed for 5 days): 0 | Mycoplasma gallisepticum collected in Air sac ([22]; 75 ppm in feed for 5 days): 0 Logarithmic number of collected cells per 1 g of tissue | Mycoplasma gallisepticum collected in Infraorbital sinus ([22]; 75 ppm in feed for 5 days): 0/5 | Mycoplasma gallisepticum collected in Lung ([22]; 75 ppm in feed for 5 days): 0 Logarithmic number of collected cells per 1 g of tissue | Mycoplasma gallisepticum collected in Trachea ([22]; 75 ppm in feed for 5 days): 0 Logarithmic number of collected cells per 1 g of tissue | Chickens developing disease in air sac (naked eye observation) ([22]; 75 ppm in feed for 5 days): 0 | No. of dead chickens ([22]; 75 ppm in feed for 5 days): 0 | Mycoplasma gallisepticum collected in Air sac ([22]; 100 ppm in feed for 5 days): 0 Logarithmic number of collected cells per 1 g of tissue | Mycoplasma gallisepticum collected in Infraorbital sinus ([22]; 100 ppm in feed for 5 days): 0/5 | Mycoplasma gallisepticum collected in Lung ([22]; 100 ppm in feed for 5 days): 0 Logarithmic number of collected cells per 1 g of tissue | Mycoplasma gallisepticum collected in Trachea ([22]; 100 ppm in feed for 5 days): 0 Logarithmic number of collected cells per 1 g of tissue | Chickens developing disease in air sac (naked eye observation) ([22]; 100 ppm in feed for 5 days): 0 | No. of dead chickens ([22]; 100 ppm in feed for 5 days): 0
